In US20210323985A1, “SHIELDING AGENTS AND THEIR USE” (ENDOCYTE, INC., priority 2018, published 2021):

How the values were obtained:
[1] = system: LNCaP tumors; assay: Biodistribution of Ia-Lu with or without co-administered shielding agent in nude mice bearing LNCaP tumors; type: in vivo; conditions: 4 hours; 30 nmol/kg Ia-Lu; co-administration of 1 μmol/kg shielding agent, vs Ia-Lu alone; FIG. 9
Experimental: FIG. 9 is a chart showing the biodistribution at 4 hours in nude mice bearing LNCaP tumors at 30 nmol/kg of Ia-Lu with or without co-administration of 1 μmol/kg of a shielding agent. […] In the graph for each tissue Ia-Lu alone (left bar), Ia-Lu+compound 1m (middle bar), Ia-Lu+compound 1d (S-enantiomer) (right bar).
(§1) The shielding agents of the present disclosure were administered in combination with an imaging agent of the disclosure, and the biodistribution was analyzed.

[2] = system: 22RV1 tumors; assay: Biodistribution of 99mTc imaging conjugate 3a co-administered with a shielding agent in nude mice bearing 22RV1 tumors; type: in vivo; conditions: 4 hours; 30 nmol/kg 99mTc imaging conjugate 3a; co-administration of 1 μmol/kg shielding agent; FIG. 8
Experimental: FIG. 8 is a chart showing the biodistribution at 4 hours in nude mice bearing 22RV1 tumors at 30 nmol/kg of ^99mTC imaging conjugate 3a with co-administration of 1 μmol/kg of a shielding agent. […] In the graph for each tissue ^99mTC imaging conjugate 3a+compound 1d (S-enantiomer) (left bar), ^99mTC imaging conjugate 3a+compound 1d (R-enantiomer) (right bar).
as §1

Row | SMILES | Ia-Lu tumor to kidney ratio [1] | 99mTc imaging conjugate 3a tumor to kidney ratio [2] | activity of shielding agent (comparison of enantiomers) [2]
1 | CCCCOC(=O)CC[C@H](NC(=O)N[C@@H](CCC(=O)O)C(=O)O)C(=O)O [Compound 1m] | enhanced |  | 
2 | CCCCCCCCCCCCOC(=O)CC[C@@H](CP(=O)(O)O)C(=O)O [1d (S-enantiomer)] | enhanced | enhanced | more active than the R-enantiomer
